A short description of data set [1]: Absorption of bromhexine from the intestinal tract (preliminary tests in vivo). The note with it: for absorption from the intestinal tract: micronized, introduced by preparation resistant to gastric juices. The source says:
In view of the obvious advantages of producing a delayed-release form of bromhexine, there has been no shortage of attempts to produce such a preparation. […] In cases such as this, success is often achieved if the active substance is mixed with an emulsifier which then releases the active substance in solubilized form in the intestinal juices.

The conditions of data set [2]: cited from earlier work.
A short description of data set [3]: Solubility of bromhexine base in phosphate buffer / aqueous medium. Type of data set: physicochemical. To be noted: for solubility: aqueous buffer. The source says: If, for example, bromhexine hydrochloride is made into the form of a matrix-type delayed-release tablet (Example 11), bromhexine can only be released, in dissolved form, from this preparation as long as the tablet is in the acidic medium of the stomach. […] The intestinal juices momentarily buffer the acid salts to form a substantially insoluble bromhexine base.

Each structure is given as a SMILES string. Values after ≈ are worked out from the molar mass of the structure shown. “Also recorded” adds a separate entry of the source. Counter-ions that a name gives are not always drawn.

The term solubility denotes the concentration that dissolves in the medium under given conditions. Read a low solubility as little dissolved substance.

`CN(Cc1cc(Br)cc(Br)c1N)C1CCCCC1` [bromhexine, N-cyclohexyl-N-methyl-(2-amino-3,5-dibromobenzyl)-amine]: the “absorption rate along the intestine” value in data set [1] (dissolved bromhexine in various intestinal sections, duodenum to colon) is “decreases sharply from the duodenum to the colon; also recorded: absorbed particularly quickly in the uppermost section of the intestines; also recorded: decreases significantly in the lower intestinal regions”. Further, the “frequency of coughing, total number of coughing spasms and intensity of the cough” value in data set [2] (in vivo) is listed as “favorably affected”. Also, the “therapeutic effect in diseases of the respiratory tract” value in data set [2] (pathological change in secretion, single or double blind testing) is given as “often been confirmed”. In data set [2] (patients' finding), the breathing entry is on record as “breathing is eased”. In addition, the Solubility in water entry in data set [3] (above a pH of 4 / from pH 4.0) is “virtually insoluble in water; also recorded: virtually insoluble from pH 4.0”. In data set [3] (acidic range), the “Solubility in aqueous medium” value is on record as “soluble only in the acidic range”. Further, the solubility came out at 650 µg/mL (≈ 1730 µM) in data set [3] (pH 4.5, phosphate buffer); 150 µg/mL (≈ 399 µM) in data set [3] (pH 5.0, phosphate buffer); 30 µg/mL (≈ 79.8 µM) in data set [3] (pH 6.0, phosphate buffer); 10 µg/mL (≈ 26.6 µM) in data set [3] (pH 6.5, phosphate buffer); 3 µg/mL (≈ 7.98 µM) in data set [3] (pH 7.0, phosphate buffer).
Take `CN(Cc1cc(Br)cc(Br)c1N)C1CCCCC1` [micronized bromhexine hydrochloride]: the “absorption from the intestinal tract” value in data set [1] is “did not result in any appreciable absorption”.
Still for that read-out and setting: in the case of `CN(Cc1cc(Br)cc(Br)c1N)C1CCCCC1` [micronized bromhexine] it was “not absorbed”.

These data come from patent US4438091A, “Bromhexine delayed-release pharmaceutical form” (Dr. Karl Thomae GmbH, priority 1981, dated 1984).
